Assay results from PubChem BioAssay AID1259407 (Chemical Carcinogenesis Research Information System (CCRIS), 2018).
Calls of active or inactive are those of the source. How the calls were made is not given here.

System: CCRIS mutagenicity, Ames/micronucleus/aberration tests
Test: CCRIS mutagenicity studies
[1] = Test System: AMES SALMONELLA TYPHIMURIUM, Strain/Indicator: TA98, Metabolic Activation: NONE, Method: PREINCUBATION
[2] = Test System: AMES SALMONELLA TYPHIMURIUM, Strain/Indicator: TA100, Metabolic Activation: NONE, Method: PREINCUBATION
[3] = Test System: AMES SALMONELLA TYPHIMURIUM, Strain/Indicator: TA1535, Metabolic Activation: NONE, Method: PREINCUBATION
[4] = Test System: AMES SALMONELLA TYPHIMURIUM, Strain/Indicator: TA1537, Metabolic Activation: NONE, Method: PREINCUBATION

## CCCCC(CC)CO (stereo not given)
Test System: AMES SALMONELLA TYPHIMURIUM, Strain/Indicator: TA98, Metabolic Activation: HAMSTER, LIVER, S-9, AROCLOR 1254 (10%), Method: PREINCUBATION
  mutagenic call: inactive; negative
[1]
  mutagenic call: inactive; negative
Test System: AMES SALMONELLA TYPHIMURIUM, Strain/Indicator: TA98, Metabolic Activation: RAT LIVER S-9, PHENOBARBITAL AND BETA-NAPHTHOFLAVONE, Method: PREINCUBATION
  mutagenic call: inactive; negative
Test System: AMES SALMONELLA TYPHIMURIUM, Strain/Indicator: TA98, Metabolic Activation: RAT, LIVER, S-9, AROCLOR 1254 (10%), Method: PREINCUBATION
  mutagenic call: inactive; negative
Test System: AMES SALMONELLA TYPHIMURIUM, Strain/Indicator: TA98, Metabolic Activation: RAT, LIVER, S-9, KC 500, Method: PREINCUBATION
  mutagenic call: inactive; negative
Test System: AMES SALMONELLA TYPHIMURIUM, Strain/Indicator: TA100, Metabolic Activation: HAMSTER, LIVER, S-9, AROCLOR 1254 (10%), Method: PREINCUBATION
  mutagenic call: inactive; negative
[2]
  mutagenic call: inactive; negative
Test System: AMES SALMONELLA TYPHIMURIUM, Strain/Indicator: TA100, Metabolic Activation: RAT LIVER S-9, PHENOBARBITAL AND BETA-NAPHTHOFLAVONE, Method: PREINCUBATION
  mutagenic call: inactive; negative
Test System: AMES SALMONELLA TYPHIMURIUM, Strain/Indicator: TA100, Metabolic Activation: RAT, LIVER, S-9, AROCLOR 1254 (10%), Method: PREINCUBATION
  mutagenic call: inactive; negative
Test System: AMES SALMONELLA TYPHIMURIUM, Strain/Indicator: TA100, Metabolic Activation: RAT, LIVER, S-9, KC 500, Method: PREINCUBATION
  mutagenic call: inactive; negative
Test System: AMES SALMONELLA TYPHIMURIUM, Strain/Indicator: TA1535, Metabolic Activation: HAMSTER, LIVER, S-9, AROCLOR 1254 (10%), Method: PREINCUBATION
  mutagenic call: inactive; negative
[3]
  mutagenic call: inactive; negative
Test System: AMES SALMONELLA TYPHIMURIUM, Strain/Indicator: TA1535, Metabolic Activation: RAT LIVER S-9, PHENOBARBITAL AND BETA-NAPHTHOFLAVONE, Method: PREINCUBATION
  mutagenic call: inactive; negative
Test System: AMES SALMONELLA TYPHIMURIUM, Strain/Indicator: TA1535, Metabolic Activation: RAT, LIVER, S-9, AROCLOR 1254 (10%), Method: PREINCUBATION
  mutagenic call: inactive; negative
Test System: AMES SALMONELLA TYPHIMURIUM, Strain/Indicator: TA1535, Metabolic Activation: RAT, LIVER, S-9, KC 500, Method: PREINCUBATION
  mutagenic call: inactive; negative
Test System: AMES SALMONELLA TYPHIMURIUM, Strain/Indicator: TA1537, Metabolic Activation: HAMSTER, LIVER, S-9, AROCLOR 1254 (10%), Method: PREINCUBATION
  mutagenic call: inactive; negative
[4]
  mutagenic call: inactive; negative
Test System: AMES SALMONELLA TYPHIMURIUM, Strain/Indicator: TA1537, Metabolic Activation: RAT LIVER S-9, PHENOBARBITAL AND BETA-NAPHTHOFLAVONE, Method: PREINCUBATION
  mutagenic call: inactive; negative
Test System: AMES SALMONELLA TYPHIMURIUM, Strain/Indicator: TA1537, Metabolic Activation: RAT, LIVER, S-9, AROCLOR 1254 (10%), Method: PREINCUBATION
  mutagenic call: inactive; negative
Test System: AMES SALMONELLA TYPHIMURIUM, Strain/Indicator: TA1537, Metabolic Activation: RAT, LIVER, S-9, KC 500, Method: PREINCUBATION
  mutagenic call: inactive; negative
Test System: AMES SALMONELLA TYPHIMURIUM, Strain/Indicator: TA1538, Metabolic Activation: NONE, Method: PREINCUBATION
  mutagenic call: inactive; negative
Test System: AMES SALMONELLA TYPHIMURIUM, Strain/Indicator: TA1538, Metabolic Activation: RAT, LIVER, S-9, KC 500, Method: PREINCUBATION
  mutagenic call: inactive; negative
Test System: E. COLI, Strain/Indicator: WP2 UVRA, Metabolic Activation: NONE, Method: PREINCUBATION
  mutagenic call: inactive; negative
Test System: E. COLI, Strain/Indicator: WP2UVRA, Metabolic Activation: NONE, Method: PREINCUBATION
  mutagenic call: inactive; negative
Test System: E. COLI, Strain/Indicator: WP2UVRA, Metabolic Activation: RAT LIVER S-9, PHENOBARBITAL AND BETA-NAPHTHOFLAVONE, Method: PREINCUBATION
  mutagenic call: inactive; negative
Test System: E. COLI, Strain/Indicator: WP2 UVRA, Metabolic Activation: RAT, LIVER, S-9, KC 500, Method: PREINCUBATION
  mutagenic call: inactive; negative

## Cc1cc(N)sn1
Test System: AMES SALMONELLA TYPHIMURIUM, Strain/Indicator: TA102, Metabolic Activation: RAT, LIVER, S-9, AROCLOR 1254, HAMSTER, LIVER, S-9, AROCLOR 1254, Method: PREINCUBATION
  mutagenic call: active; positive
Test System: AMES SALMONELLA TYPHIMURIUM, Strain/Indicator: TA1538, Metabolic Activation: HAMSTER, LIVER, S-9, AROCLOR 1254 (5, 10%), Method: STANDARD PLATE
  mutagenic call: active; positive
Test System: AMES SALMONELLA TYPHIMURIUM, Strain/Indicator: TA1538, Metabolic Activation: HAMSTER, LIVER, S-9, AROCLOR 1254, Method: STANDARD PLATE
  mutagenic call: active; positive
Test System: MOUSE LYMPHOMA, Strain/Indicator: L5178Y (TK+/TK-), Metabolic Activation: NONE, Method: SUSPENSION/PLATE
  mutagenic call: active; positive. reevaluation of results: inconclusive
Test System: MOUSE LYMPHOMA, Strain/Indicator: L5178Y (TK+/TK-), Metabolic Activation: RAT, LIVER, S-9, AROCLOR 1254, Method: SUSPENSION/PLATE
  mutagenic call: active; positive. reevaluation of results: equivocal

## CCCCCCCCCCCCCCCCCCCC
Test System: AMES SALMONELLA TYPHIMURIUM, Strain/Indicator: TA97, Metabolic Activation: HAMSTER, LIVER, S-9, AROCLOR 1254 (10 OR 30%), Method: PREINCUBATION
  mutagenic call: inactive; negative
Test System: AMES SALMONELLA TYPHIMURIUM, Strain/Indicator: TA97, Metabolic Activation: NONE, Method: PREINCUBATION
  mutagenic call: inactive; negative
Test System: AMES SALMONELLA TYPHIMURIUM, Strain/Indicator: TA97, Metabolic Activation: RAT, LIVER, S-9, AROCLOR 1254 (10 OR 30%), Method: PREINCUBATION
  mutagenic call: inactive; negative
Test System: AMES SALMONELLA TYPHIMURIUM, Strain/Indicator: TA98, Metabolic Activation: HAMSTER, LIVER, S-9, AROCLOR 1254 (10 OR 30%), Method: PREINCUBATION
  mutagenic call: inactive; negative
[1]
  mutagenic call: inactive; negative
Test System: AMES SALMONELLA TYPHIMURIUM, Strain/Indicator: TA98, Metabolic Activation: RAT, LIVER, S-9, AROCLOR 1254 (10 OR 30%), Method: PREINCUBATION
  mutagenic call: inactive; negative
Test System: AMES SALMONELLA TYPHIMURIUM, Strain/Indicator: TA100, Metabolic Activation: HAMSTER, LIVER, S-9, AROCLOR 1254 (10 OR 30%), Method: PREINCUBATION
  mutagenic call: inactive; negative
[2]
  mutagenic call: inactive; negative
Test System: AMES SALMONELLA TYPHIMURIUM, Strain/Indicator: TA100, Metabolic Activation: RAT, LIVER, S-9, AROCLOR 1254 (10 OR 30%), Method: PREINCUBATION
  mutagenic call: inactive; negative
Test System: AMES SALMONELLA TYPHIMURIUM, Strain/Indicator: TA1535, Metabolic Activation: HAMSTER, LIVER, S-9, AROCLOR 1254 (10 OR 30%), Method: PREINCUBATION
  mutagenic call: inactive; negative
[3]
  mutagenic call: inactive; negative
Test System: AMES SALMONELLA TYPHIMURIUM, Strain/Indicator: TA1535, Metabolic Activation: RAT, LIVER, S-9, AROCLOR 1254 (10 OR 30%), Method: PREINCUBATION
  mutagenic call: inactive; negative
Test System: AMES SALMONELLA TYPHIMURIUM, Strain/Indicator: TA1537, Metabolic Activation: HAMSTER, LIVER, S-9, AROCLOR 1254 (30%), Method: PREINCUBATION
  mutagenic call: inactive; negative
[4]
  mutagenic call: inactive; negative
Test System: AMES SALMONELLA TYPHIMURIUM, Strain/Indicator: TA1537, Metabolic Activation: RAT, LIVER, S-9, AROCLOR 1254 (30%), Method: PREINCUBATION
  mutagenic call: inactive; negative

## BrCc1c2ccccc2cc2ccccc12
Test System: AMES SALMONELLA TYPHIMURIUM, Strain/Indicator: TA98, Metabolic Activation: NONE, Method: STANDARD PLATE
  mutagenic call: active; positive
Test System: AMES SALMONELLA TYPHIMURIUM, Strain/Indicator: TA100, Metabolic Activation: NONE, Method: STANDARD PLATE
  mutagenic call: active; positive

## Cc1cc(N)cc([N+](=O)[O-])c1N
Test System: AMES SALMONELLA TYPHIMURIUM, Strain/Indicator: TA98, Metabolic Activation: RAT, LIVER, S-9, AROCLOR 1254, Method: STANDARD PLATE
  mutagenic call: active; positive
Test System: AMES SALMONELLA TYPHIMURIUM, Strain/Indicator: TA1538, Metabolic Activation: RAT, LIVER, S-9, AROCLOR 1254, Method: STANDARD PLATE
  mutagenic call: active; positive
